Converted amounts (≈) assume the structure as drawn.
These compounds were tested on Staphylococcus aureus (assay: Antibacterial activity against Staphylococcus aureus assessed as inhibition of bacterial growth).
Type: functional

First: Cc1ccc(/C=C2\S/C(=N/c3ccc4c(C)cc(=O)oc4c3)N(CCO)C2=O)o1
Second: Cc1cc(=O)oc2cc(/N=C3/S/C(=C\c4ccccc4F)C(=O)N3CCO)ccc12
The MIC of the first is 130-fold higher: 128 µg/mL (≈ 312 µM) for the first, 1 µg/mL (≈ 2.36 µM) for the second.

Compared with CCCCc1nc(Cl)c(/C=C2\S/C(=N/c3ccc4c(C)cc(=O)oc4c3)N(CCO)C2=O)[nH]1, Cc1cc(=O)oc2cc(/N=C3/S/C(=C\c4ccc(O)c(Cl)c4)C(=O)N3CCO)ccc12 is 4-fold higher in MIC: 8 µg/mL (≈ 16.4 µM) for the first, 32 µg/mL (≈ 70 µM) for the second.

First: CCn1cc(/C=C2\S/C(=N/c3ccc4c(C)cc(=O)oc4c3)N(CCO)C2=O)c2ccccc21
Second: Cc1cc(=O)oc2cc(/N=C3/S/C(=C\c4c[nH]c5cc(Cl)ccc45)C(=O)N3CCO)ccc12
The MIC of the first is 8-fold higher: 128 µg/mL (≈ 270 µM) for the first, 16 µg/mL (≈ 33.3 µM) for the second.

The compounds below were run on Staphylococcus aureus (assay: Antibacterial activity against methicillin resistant Staphylococcus aureus N315 assessed as inhibition of bacterial growth).
Type: functional

Going from Cc1ccc(/C=C2\S/C(=N/c3ccc4c(C)cc(=O)oc4c3)N(CCO)C2=O)o1 to Cc1cc(=O)oc2cc(/N=C3/S/C(=C\c4ccccc4F)C(=O)N3CCO)ccc12, the MIC falls from 8 µg/mL (≈ 19.5 µM) to 4 µg/mL (≈ 9.42 µM) (2-fold).

Compared with CCCCc1nc(Cl)c(/C=C2\S/C(=N/c3ccc4c(C)cc(=O)oc4c3)N(CCO)C2=O)[nH]1, Cc1cc(=O)oc2cc(/N=C3/S/C(=C\c4ccc(O)c(Cl)c4)C(=O)N3CCO)ccc12 is 2-fold lower in MIC: 128 µg/mL (≈ 263 µM) for the first, 64 µg/mL (≈ 140 µM) for the second.

Going from CCn1cc(/C=C2\S/C(=N/c3ccc4c(C)cc(=O)oc4c3)N(CCO)C2=O)c2ccccc21 to Cc1cc(=O)oc2cc(/N=C3/S/C(=C\c4c[nH]c5cc(Cl)ccc45)C(=O)N3CCO)ccc12, the MIC falls from 128 µg/mL (≈ 270 µM) to 8 µg/mL (≈ 16.7 µM) (16-fold).

What follows are compounds tested on Enterococcus faecalis (assay: Antibacterial activity against Enterococcus faecalis assessed as inhibition of bacterial growth).
Type: functional

Compared with Cc1ccc(/C=C2\S/C(=N/c3ccc4c(C)cc(=O)oc4c3)N(CCO)C2=O)o1, Cc1cc(=O)oc2cc(/N=C3/S/C(=C\c4ccccc4F)C(=O)N3CCO)ccc12 is 260-fold lower in MIC: 64 µg/mL (≈ 156 µM) for the first, 0.25 µg/mL (≈ 0.589 µM) for the second.

First: CCCCc1nc(Cl)c(/C=C2\S/C(=N/c3ccc4c(C)cc(=O)oc4c3)N(CCO)C2=O)[nH]1
Second: Cc1cc(=O)oc2cc(/N=C3/S/C(=C\c4ccc(O)c(Cl)c4)C(=O)N3CCO)ccc12
The MIC of the first is 16-fold higher: 128 µg/mL (≈ 263 µM) for the first, 8 µg/mL (≈ 17.5 µM) for the second.

First: CCn1cc(/C=C2\S/C(=N/c3ccc4c(C)cc(=O)oc4c3)N(CCO)C2=O)c2ccccc21
Second: Cc1cc(=O)oc2cc(/N=C3/S/C(=C\c4c[nH]c5cc(Cl)ccc45)C(=O)N3CCO)ccc12
The MIC of the first is 32-fold higher: 128 µg/mL (≈ 270 µM) for the first, 4 µg/mL (≈ 8.33 µM) for the second.

What follows are compounds tested on Staphylococcus aureus (assay: Antibacterial activity against Staphylococcus aureus ATCC 25923 assessed as inhibition of bacterial growth).
Type: functional

Compared with Cc1ccc(/C=C2\S/C(=N/c3ccc4c(C)cc(=O)oc4c3)N(CCO)C2=O)o1, Cc1cc(=O)oc2cc(/N=C3/S/C(=C\c4ccccc4F)C(=O)N3CCO)ccc12 is 8-fold lower in MIC: 256 µg/mL (≈ 624 µM) for the first, 32 µg/mL (≈ 75.4 µM) for the second.

CCCCc1nc(Cl)c(/C=C2\S/C(=N/c3ccc4c(C)cc(=O)oc4c3)N(CCO)C2=O)[nH]1 and Cc1cc(=O)oc2cc(/N=C3/S/C(=C\c4ccc(O)c(Cl)c4)C(=O)N3CCO)ccc12 are the same in MIC: 128 µg/mL (≈ 263 µM) for the first, 128 µg/mL (≈ 280 µM) for the second.

Compared with CCn1cc(/C=C2\S/C(=N/c3ccc4c(C)cc(=O)oc4c3)N(CCO)C2=O)c2ccccc21, Cc1cc(=O)oc2cc(/N=C3/S/C(=C\c4c[nH]c5cc(Cl)ccc45)C(=O)N3CCO)ccc12 is 8-fold lower in MIC: 64 µg/mL (≈ 135 µM) for the first, 8 µg/mL (≈ 16.7 µM) for the second.

What follows are compounds tested on Staphylococcus aureus (assay: Antibacterial activity against Staphylococcus aureus ATCC 29213 assessed as inhibition of bacterial growth).
Type: functional

First: Cc1ccc(/C=C2\S/C(=N/c3ccc4c(C)cc(=O)oc4c3)N(CCO)C2=O)o1
Second: Cc1cc(=O)oc2cc(/N=C3/S/C(=C\c4ccccc4F)C(=O)N3CCO)ccc12
The MIC of the first is 2-fold higher: 128 µg/mL (≈ 312 µM) for the first, 64 µg/mL (≈ 151 µM) for the second.

First: CCCCc1nc(Cl)c(/C=C2\S/C(=N/c3ccc4c(C)cc(=O)oc4c3)N(CCO)C2=O)[nH]1
Second: Cc1cc(=O)oc2cc(/N=C3/S/C(=C\c4ccc(O)c(Cl)c4)C(=O)N3CCO)ccc12
The MIC of the first is 4-fold lower: 64 µg/mL (≈ 131 µM) for the first, 256 µg/mL (≈ 560 µM) for the second.

First: CCn1cc(/C=C2\S/C(=N/c3ccc4c(C)cc(=O)oc4c3)N(CCO)C2=O)c2ccccc21
Second: Cc1cc(=O)oc2cc(/N=C3/S/C(=C\c4c[nH]c5cc(Cl)ccc45)C(=O)N3CCO)ccc12
The MIC of the first is 2-fold higher: 128 µg/mL (≈ 270 µM) for the first, 64 µg/mL (≈ 133 µM) for the second.

The compounds below were run on Klebsiella pneumoniae (assay: Antibacterial activity against Klebsiella pneumoniae assessed as inhibition of bacterial growth).
Type: functional

Cc1ccc(/C=C2\S/C(=N/c3ccc4c(C)cc(=O)oc4c3)N(CCO)C2=O)o1 and Cc1cc(=O)oc2cc(/N=C3/S/C(=C\c4ccccc4F)C(=O)N3CCO)ccc12 are the same in MIC: 32 µg/mL (≈ 78 µM) for the first, 32 µg/mL (≈ 75.4 µM) for the second.

Going from CCCCc1nc(Cl)c(/C=C2\S/C(=N/c3ccc4c(C)cc(=O)oc4c3)N(CCO)C2=O)[nH]1 to Cc1cc(=O)oc2cc(/N=C3/S/C(=C\c4ccc(O)c(Cl)c4)C(=O)N3CCO)ccc12, the MIC falls from 64 µg/mL (≈ 131 µM) to 32 µg/mL (≈ 70 µM) (2-fold).

Going from CCn1cc(/C=C2\S/C(=N/c3ccc4c(C)cc(=O)oc4c3)N(CCO)C2=O)c2ccccc21 to Cc1cc(=O)oc2cc(/N=C3/S/C(=C\c4c[nH]c5cc(Cl)ccc45)C(=O)N3CCO)ccc12, the MIC falls from 64 µg/mL (≈ 135 µM) to 8 µg/mL (≈ 16.7 µM) (8-fold).

The compounds below were run on Escherichia coli (assay: Antibacterial activity against Escherichia coli assessed as inhibition of bacterial growth).
Type: functional

Going from Cc1ccc(/C=C2\S/C(=N/c3ccc4c(C)cc(=O)oc4c3)N(CCO)C2=O)o1 to Cc1cc(=O)oc2cc(/N=C3/S/C(=C\c4ccccc4F)C(=O)N3CCO)ccc12, the MIC rises from 16 µg/mL (≈ 39 µM) to 32 µg/mL (≈ 75.4 µM) (2-fold).

Going from CCCCc1nc(Cl)c(/C=C2\S/C(=N/c3ccc4c(C)cc(=O)oc4c3)N(CCO)C2=O)[nH]1 to Cc1cc(=O)oc2cc(/N=C3/S/C(=C\c4ccc(O)c(Cl)c4)C(=O)N3CCO)ccc12, the MIC falls from 32 µg/mL (≈ 65.7 µM) to 16 µg/mL (≈ 35 µM) (2-fold).

Compared with CCn1cc(/C=C2\S/C(=N/c3ccc4c(C)cc(=O)oc4c3)N(CCO)C2=O)c2ccccc21, Cc1cc(=O)oc2cc(/N=C3/S/C(=C\c4c[nH]c5cc(Cl)ccc45)C(=O)N3CCO)ccc12 is 8-fold lower in MIC: 64 µg/mL (≈ 135 µM) for the first, 8 µg/mL (≈ 16.7 µM) for the second.

These compounds were tested on Escherichia coli (assay: Antibacterial activity against Escherichia coli ATCC 25922 assessed as inhibition of bacterial growth).
Type: functional

Compared with Cc1ccc(/C=C2\S/C(=N/c3ccc4c(C)cc(=O)oc4c3)N(CCO)C2=O)o1, Cc1cc(=O)oc2cc(/N=C3/S/C(=C\c4ccccc4F)C(=O)N3CCO)ccc12 is 4-fold lower in MIC: 64 µg/mL (≈ 156 µM) for the first, 16 µg/mL (≈ 37.7 µM) for the second.

Going from CCCCc1nc(Cl)c(/C=C2\S/C(=N/c3ccc4c(C)cc(=O)oc4c3)N(CCO)C2=O)[nH]1 to Cc1cc(=O)oc2cc(/N=C3/S/C(=C\c4ccc(O)c(Cl)c4)C(=O)N3CCO)ccc12, the MIC falls from 64 µg/mL (≈ 131 µM) to 32 µg/mL (≈ 70 µM) (2-fold).

Going from CCn1cc(/C=C2\S/C(=N/c3ccc4c(C)cc(=O)oc4c3)N(CCO)C2=O)c2ccccc21 to Cc1cc(=O)oc2cc(/N=C3/S/C(=C\c4c[nH]c5cc(Cl)ccc45)C(=O)N3CCO)ccc12, the MIC falls from 128 µg/mL (≈ 270 µM) to 16 µg/mL (≈ 33.3 µM) (8-fold).

What follows are compounds tested on Pseudomonas aeruginosa (assay: Antibacterial activity against Pseudomonas aeruginosa assessed as inhibition of bacterial growth).
Type: functional

Going from Cc1ccc(/C=C2\S/C(=N/c3ccc4c(C)cc(=O)oc4c3)N(CCO)C2=O)o1 to Cc1cc(=O)oc2cc(/N=C3/S/C(=C\c4ccccc4F)C(=O)N3CCO)ccc12, the MIC falls from 16 µg/mL (≈ 39 µM) to 4 µg/mL (≈ 9.42 µM) (4-fold).

First: CCCCc1nc(Cl)c(/C=C2\S/C(=N/c3ccc4c(C)cc(=O)oc4c3)N(CCO)C2=O)[nH]1
Second: Cc1cc(=O)oc2cc(/N=C3/S/C(=C\c4ccc(O)c(Cl)c4)C(=O)N3CCO)ccc12
The MIC of the first is 8-fold higher: 256 µg/mL (≈ 526 µM) for the first, 32 µg/mL (≈ 70 µM) for the second.

Compared with CCn1cc(/C=C2\S/C(=N/c3ccc4c(C)cc(=O)oc4c3)N(CCO)C2=O)c2ccccc21, Cc1cc(=O)oc2cc(/N=C3/S/C(=C\c4c[nH]c5cc(Cl)ccc45)C(=O)N3CCO)ccc12 is 2-fold higher in MIC: 64 µg/mL (≈ 135 µM) for the first, 128 µg/mL (≈ 267 µM) for the second.

What follows are compounds tested on Pseudomonas aeruginosa (assay: Antibacterial activity against Pseudomonas aeruginosa ATCC 27853 assessed as inhibition of bacterial growth).
Type: functional

Going from Cc1ccc(/C=C2\S/C(=N/c3ccc4c(C)cc(=O)oc4c3)N(CCO)C2=O)o1 to Cc1cc(=O)oc2cc(/N=C3/S/C(=C\c4ccccc4F)C(=O)N3CCO)ccc12, the MIC falls from 16 µg/mL (≈ 39 µM) to 1 µg/mL (≈ 2.36 µM) (16-fold).

Compared with CCCCc1nc(Cl)c(/C=C2\S/C(=N/c3ccc4c(C)cc(=O)oc4c3)N(CCO)C2=O)[nH]1, Cc1cc(=O)oc2cc(/N=C3/S/C(=C\c4ccc(O)c(Cl)c4)C(=O)N3CCO)ccc12 is 64-fold lower in MIC: 256 µg/mL (≈ 526 µM) for the first, 4 µg/mL (≈ 8.75 µM) for the second.

Compared with CCn1cc(/C=C2\S/C(=N/c3ccc4c(C)cc(=O)oc4c3)N(CCO)C2=O)c2ccccc21, Cc1cc(=O)oc2cc(/N=C3/S/C(=C\c4c[nH]c5cc(Cl)ccc45)C(=O)N3CCO)ccc12 is 2-fold higher in MIC: 32 µg/mL (≈ 67.6 µM) for the first, 64 µg/mL (≈ 133 µM) for the second.

These compounds were tested on Acinetobacter baumannii (assay: Antibacterial activity against Acinetobacter baumannii assessed as inhibition of bacterial growth).
Type: functional

Compared with Cc1ccc(/C=C2\S/C(=N/c3ccc4c(C)cc(=O)oc4c3)N(CCO)C2=O)o1, Cc1cc(=O)oc2cc(/N=C3/S/C(=C\c4ccccc4F)C(=O)N3CCO)ccc12 is 2-fold higher in MIC: 8 µg/mL (≈ 19.5 µM) for the first, 16 µg/mL (≈ 37.7 µM) for the second.

Compared with CCCCc1nc(Cl)c(/C=C2\S/C(=N/c3ccc4c(C)cc(=O)oc4c3)N(CCO)C2=O)[nH]1, Cc1cc(=O)oc2cc(/N=C3/S/C(=C\c4ccc(O)c(Cl)c4)C(=O)N3CCO)ccc12 is 4-fold lower in MIC: 64 µg/mL (≈ 131 µM) for the first, 16 µg/mL (≈ 35 µM) for the second.

First: CCn1cc(/C=C2\S/C(=N/c3ccc4c(C)cc(=O)oc4c3)N(CCO)C2=O)c2ccccc21
Second: Cc1cc(=O)oc2cc(/N=C3/S/C(=C\c4c[nH]c5cc(Cl)ccc45)C(=O)N3CCO)ccc12
The MIC of the first is 16-fold higher: 64 µg/mL (≈ 135 µM) for the first, 4 µg/mL (≈ 8.33 µM) for the second.

— ChEMBL document CHEMBL5131495, “Discovery of unique thiazolidinone-conjugated coumarins as novel broad spectrum antibacterial agents” (Eur J Med Chem, 2022)
